Our source for the IC50 values is ChEMBL document CHEMBL5726153, “Benzimidazole derivatives as kinase inhibitors” (2019).

Several values for one entry are separate records, joined by “and”; a condition that tells them apart may be missing. Equal values may be shown once.

As usually defined, the IC50 is the midpoint of a concentration-inhibition curve.

The data set deals with Voltage-gated inwardly rectifying potassium channel KCNH2 (Homo sapiens, UniProt Q12809). Put plainly: Determination of a Possible Activity on hERG: The hERG (human ether-A-go-go-related gene) channel corresponds to an important anti-target for potential new drugs since its inhibition may lead to sudden death. In order to establish whether the compounds of the present invention act on hERG, the following experiment was carried out.The in vitro effects of the compounds indicated in Table 5 on the …. The format is cell-based. On the technique in general: hERG is a cardiac potassium channel; its block is linked to QT prolongation.
Voltage-gated inwardly rectifying potassium channel KCNH2, sequence (Q12809 whole entry): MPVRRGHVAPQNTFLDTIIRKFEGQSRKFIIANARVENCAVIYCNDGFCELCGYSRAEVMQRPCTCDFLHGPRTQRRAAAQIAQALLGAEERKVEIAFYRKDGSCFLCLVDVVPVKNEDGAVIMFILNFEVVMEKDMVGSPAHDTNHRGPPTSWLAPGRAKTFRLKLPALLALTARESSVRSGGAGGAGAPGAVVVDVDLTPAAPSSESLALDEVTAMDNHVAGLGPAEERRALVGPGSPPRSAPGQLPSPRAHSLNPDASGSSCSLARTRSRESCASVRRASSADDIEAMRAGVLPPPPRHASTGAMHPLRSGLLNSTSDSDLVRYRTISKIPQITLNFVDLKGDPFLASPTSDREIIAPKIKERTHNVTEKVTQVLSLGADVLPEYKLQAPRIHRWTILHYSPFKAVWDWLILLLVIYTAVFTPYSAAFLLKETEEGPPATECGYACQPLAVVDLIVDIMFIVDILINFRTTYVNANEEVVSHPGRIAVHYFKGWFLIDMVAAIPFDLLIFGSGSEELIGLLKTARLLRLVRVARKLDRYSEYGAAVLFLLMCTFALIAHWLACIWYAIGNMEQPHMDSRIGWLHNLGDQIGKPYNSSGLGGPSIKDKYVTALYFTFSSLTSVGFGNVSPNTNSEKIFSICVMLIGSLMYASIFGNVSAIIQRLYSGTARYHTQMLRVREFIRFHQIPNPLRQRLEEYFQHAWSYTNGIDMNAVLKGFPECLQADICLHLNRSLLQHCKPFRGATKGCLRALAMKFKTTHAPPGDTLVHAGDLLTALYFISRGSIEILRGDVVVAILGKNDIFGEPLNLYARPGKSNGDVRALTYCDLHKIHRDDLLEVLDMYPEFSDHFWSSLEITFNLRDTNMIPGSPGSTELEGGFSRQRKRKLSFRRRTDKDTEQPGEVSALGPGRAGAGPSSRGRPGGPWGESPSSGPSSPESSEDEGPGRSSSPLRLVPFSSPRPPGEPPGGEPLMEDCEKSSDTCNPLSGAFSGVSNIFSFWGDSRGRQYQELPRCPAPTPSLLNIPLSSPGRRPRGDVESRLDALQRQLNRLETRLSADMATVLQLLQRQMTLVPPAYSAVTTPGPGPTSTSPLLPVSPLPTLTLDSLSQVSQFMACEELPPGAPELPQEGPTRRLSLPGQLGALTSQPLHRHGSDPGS

Consider `CCn1c(N2CCNC(=O)C2)nc2c([N+](=O)[O-])c(Br)c(Br)cc21`, for which the IC50 is 1.78 µM and 11.9 µM.

`CCn1c(N2CCNCC2)nc2c([N+](=O)[O-])c(Br)c(Br)cc21`: the IC50 is 16.9 µM.
